Holding throughout (experiment): NCI tumour cell line growth inhibition, 48 h
Assay [1] has as its system A549 NSCLC.
The test system of assay [2] is OVCAR-4 ovarian.
Assay [3] has as its system SR leukemia.
For assay [4], the system named is MDA-MB-231 breast.
The test system of assay [5] is HL-60(TB) leukemia.
Assay [6] concerns COLO 205 colon.
Assay [7] has as its system ACHN renal.
Assay [8] relates to SK-MEL-28 melanoma.
Assay [9] has as its system IGROV1 ovarian.
Assay [10] relates to M14 melanoma.
The test system of assay [11] is HT29 colon.

Where “and” joins values, the source holds several entries; their conditions need not be identical. Equal values may be shown once.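 Test compounds were applied to cells in 96-well plates for 48 hours at 5 doses. At the GI50, growth is halved. Definition used: TGI = concentration required for complete inhibition of growth.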 Some results are limits rather than exact numbers.

In the case of `C=CCC1C2CCC(O[Si](C(C)C)(C(C)C)C(C)C)(C(C(=O)OC)C2)C1O` (centres undefined), the TGI in [1] is > 100 µM; in assay [2], > 100 µM; in assay [3], > 100 µM; in assay [4], > 100 µM; in assay [5], 36.7 µM; in [6] it was > 100 µM. The TGI in assay [7], in assay [8], in [9], in assay [10] and in assay [11] was > 100 µM throughout.
Consider `C#CC(O)Cc1ccc(OC)c2occc12` (centres undefined), for which the TGI in [1], in [2], in assay [3], in assay [4], in [6] and in assay [7] was > 100 µM each time. The TGI in assay [9], in [10] and in [11] was > 100 µM each time.
For `O=[N+]([O-])c1ccc2[nH]c(O)c(N=NC(=S)Nc3ccccc3)c2c1`, the TGI was 20.8 µM in [1]; 29.2 µM in assay [2]; > 100 µM in assay [3]; 24.8 µM in assay [4]; 36.3 µM in assay [5]; > 100 µM in assay [6]. In addition, the TGI in [7] turned out to be 19.5 µM; in [8], 52.2 µM; in assay [9], 19.6 µM; in [10], 22.4 µM; in assay [11], 19 µM.
Regarding `CC(=O)NC1C(OCc2ccccc2)OC(CO)C(O)C1OCC(=O)N1CCCC1C(=O)NC(CCC(=O)NCCCCCNc1c2ccccc2nc2cccc([N+](=O)[O-])c12)C(N)=O` (centres undefined), the TGI turned out to be 0.137 µM in [1]; 3.98 µM in assay [2]; 5.01 µM in assay [3]; 0.0426 µM in [4]; 3.98 µM in [5]; 0.039 µM in assay [6]. Further, the TGI in [7] is 0.0813 µM; in [8], 0.11 µM; in [9] it was 0.86 µM; in assay [10], 0.0591 µM; in [11] it was 12.5 µM.
Regarding `Nc1nc(NCCOCP(=O)(O)O)c(N)c(=O)[nH]1`, the TGI in assay [1], in [2], in [3], in assay [4], in assay [5] and in assay [6] was > 100 µM each time. Moreover, the TGI in assay [7], in assay [8], in [9], in assay [10] and in assay [11] was > 100 µM throughout.
Consider `S=C(Nc1cccc(C2(N3CCCCC3)CCCCC2)c1)Nc1cccc(C2(N3CCCCC3)CCCCC2)c1`, for which the TGI in assay [1] is > 100 µM; in assay [2], > 100 µM; in [3], 31.6 µM; in assay [4] it was 32.5 µM; in [5], 38.2 µM; in [6], 37.6 µM. The TGI in assay [7] was 54 µM; in assay [8] it was 35.3 µM; in [9], > 100 µM; in [10], 35.5 µM; in [11], 66.1 µM.
As to `CC1=C(C)C(=O)C(C2=C(C3=CC(=O)C(C)=C(C)C3=O)C(=O)c3ccccc3C2=O)=CC1=O`, the TGI in assay [1] is 17.7 µM; in assay [2], 4 µM; in [3] it was 14.1 µM; in assay [4], 6.23 µM; in [5], 1.11 µM; in [6], 3.93 µM. For the same compound, the TGI is 6.71 µM in [7]; 5.03 µM in assay [8]; 7.14 µM in assay [9]; 3.64 µM in [10]; 5.47 µM in assay [11].
As to `CC(C)(CN)SCc1ccccc1`, the TGI in assay [1], in assay [2], in [3], in assay [4], in assay [5] and in assay [6] was > 100 µM throughout. Moreover, the TGI in [7], in assay [8], in [9], in [10] and in [11] was > 100 µM each time.
On to `Cc1cc(C(O)CNC(C)CCn2cnc3c2c(=O)n(C)c(=O)n3C)ccc1O` (centres undefined), for which the TGI in [1], in assay [2], in assay [3], in assay [4], in assay [6] and in assay [7] was > 100 µM throughout. The TGI in assay [8], in [9], in assay [10] and in assay [11] was > 100 µM in each case.
With `CCN(CC)CCC(=O)O[C@H]1CC[C@H](CC(C)[C@H]2CC(=O)C(C)C=C(C)[C@H](OC(=O)CCN(CC)CC)C(OC)C(=O)[C@@H](C)CC(C)/C=C/C=C/C=C(C)C(OC)CC3CC[C@H](C)[C@](O)(O3)C(=O)C(=O)N3CCCCC3C(=O)O2)CC1OC` (some centres undefined), the TGI in [1] was 7.54 µM and 9.53 µM; in assay [2], > 10 µM and 2.46 µM; in [3], 3.46 µM and 0.618 µM; in assay [4] it was 8.14 µM and 1.74 µM; in assay [5], 4.48 µM and 1.16 µM; in assay [6], 2.8 µM and 2.49 µM. Besides, the TGI in assay [7] is 2.62 µM and 4.48 µM; in [8], 1.95 µM; in assay [9] it was 1.81 µM and 1.74 µM; in assay [10], 2.62 µM and 2.2 µM; in [11], 2.57 µM and 2.44 µM. Moreover, the GI50 was 0.00163 µM in assay [2]; 1.86 µM in assay [4]; 1.83 µM and 0.345 µM in assay [5]; 1.04 µM in assay [6]; 0.00595 µM in [9]; 0.871 µM in assay [10]. Besides, the GI50 in assay [11] is 1.07 µM.
In the case of `CC(C)(C)N=c1n(C(C)(C)C)oc(=O)n1-c1ccccc1`, the TGI in assay [1], in [2], in assay [3], in assay [4], in assay [5] and in [6] was > 50 µM throughout. The TGI in assay [7], in assay [8], in [9], in [10] and in assay [11] was > 50 µM each time.
On to `COc1cccc(C(=O)N[C@@H]2[C@H](O)[C@@H](CO)O[C@H]2n2cnc3c(N)ncnc32)c1`, for which the TGI in [1], in [2], in assay [3], in [4], in assay [5] and in assay [6] was > 100 µM each time. In addition, the TGI in assay [7], in [8], in assay [9], in assay [10] and in [11] was > 100 µM each time.
As to `CCOC(=O)NC(=S)NC(C)c1ccccc1` (centres undefined), the TGI in [1], in assay [2], in assay [3], in assay [4], in assay [6] and in [7] was > 100 µM in each case. Further, the TGI in assay [8], in [9], in [10] and in [11] was > 100 µM in each case.
For the compound `CC(Nc1n[nH]c(=O)c2c1nnn2Cc1ccccc1)c1ccccc1` (centres undefined), the TGI in [1], in assay [2], in assay [3], in [4], in assay [5] and in assay [6] was > 100 µM throughout. Moreover, the TGI was > 100 µM in assay [7], > 100 µM in [8], > 100 µM in assay [10] and 24.7 µM in assay [11]. The GI50 was > 100 µM and 26.8 µM in assay [2]; > 100 µM and 48 µM in [3]; > 100 µM and 49.8 µM in [4]; 37.4 µM and > 100 µM in assay [5].
With `Cc1cc(-c2ccc(C(=O)C(c3ccccc3)(c3ccccc3)c3ccccc3)[nH]2)on1`, the TGI in assay [1] was determined as 45.6 µM; in assay [2] it was 88.1 µM; in assay [3] it was 29.7 µM; in [4], 49.6 µM; in assay [5], 26.1 µM; in [6] it was 42.2 µM. The TGI in assay [8] came out at 52.9 µM; in [9], 73.9 µM; in [10], 71.8 µM; in assay [11], 25.6 µM.
Take `Nc1cc(N)c(N=Nc2cccc3c(S(=O)(=O)O)cccc23)cc1N=Nc1cc([N+](=O)[O-])ccc1O`: the TGI in assay [1] is 67.9 µM; in assay [2], > 100 µM; in assay [3] it was 72.6 µM; in assay [4], > 100 µM; in [6], > 100 µM; in [7] it was 78.1 µM. Further, the TGI in [9], in [10] and in assay [11] was > 100 µM each time.
On to `COC(=O)C1=NN2c3ccccc3CN([C@@H](C)c3ccccc3)C(=O)[C@H]2[C@@H]1C`, for which the TGI in [1] is > 100 µM; in assay [2], > 100 µM; in assay [3] it was > 100 µM; in [4] it was > 100 µM; in assay [5] it was > 100 µM; in assay [6], 66.8 µM. Moreover, the TGI in assay [7], in [8], in assay [10] and in assay [11] was > 100 µM each time.
For `Cc1cn2c(/C=C3/C(=O)Nc4ccccc43)c(C)nc2s1`, the TGI in [1] was 50.7 µM; in assay [3], 47 µM; in [4] it was 43.4 µM; in [5] it was 2.53 µM; in [6] it was 15.6 µM; in assay [7], > 100 µM. In addition, the TGI in [8] was > 100 µM; in assay [9], > 100 µM; in [10] it was > 100 µM; in [11], 15.5 µM.
Take `Cc1ccc(N2C(=O)C(=O)N(/N=C3\C(=O)Nc4ccccc43)C2=S)cc1`: the TGI was > 100 µM in assay [1]; > 100 µM in [3]; > 100 µM in [4]; 25.4 µM in [5]; > 100 µM in assay [6]; > 100 µM in assay [7]. In addition, the TGI in assay [8], in [9], in assay [10] and in assay [11] was > 100 µM throughout.
Regarding `CCN1C(=O)CS/C1=N\NC(=O)CSc1nc2ccccc2c(=O)n1CC`, the TGI in [1], in assay [2], in assay [3], in assay [4], in assay [5] and in [6] was > 100 µM each time. Further, the TGI in assay [7], in [8], in [9] and in assay [10] was > 100 µM in each case.
Turning to `CCc1n[nH]c(=S)n1/N=C\c1ccc(-c2ccccc2[N+](=O)[O-])o1`, the TGI in assay [1] is > 100 µM; in [2], > 100 µM; in assay [3] it was 57.8 µM; in [4] it was > 100 µM; in assay [5] it was > 100 µM; in assay [6], > 100 µM. Moreover, the TGI in assay [7], in [9], in assay [10] and in [11] was > 100 µM in each case.
On to `CNc1ncnc2c1cnn2Cc1cn(CCCCO)nn1`, for which the TGI in [1], in [2], in assay [3], in assay [4], in assay [6] and in assay [7] was > 100 µM in each case. The TGI in assay [8], in assay [9], in [10] and in [11] was > 100 µM in each case.
As to `COC(=O)CCC1(O)C=CC(=O)C=C1`, the TGI was > 100 µM in assay [1]; > 100 µM in [2]; > 100 µM in assay [3]; > 100 µM in [4]; 40.2 µM in [6]; > 100 µM in [7]. Moreover, the TGI in assay [8] was 60.9 µM; in assay [9], > 100 µM; in assay [10] it was > 100 µM; in assay [11] it was > 100 µM.
Regarding `CCOC(=O)c1c(NC(=O)c2ccc(Br)cc2)sc2c1CCCC2`, the TGI in [1], in assay [3], in assay [4], in [5], in assay [6] and in assay [7] was > 100 µM in each case. The TGI in [8], in assay [9], in assay [10] and in assay [11] was > 100 µM throughout.
